According to patent publication US6083941A, “Inhibition of NMDA receptor activity by pregnenolone sulfate derivatives” (Trustees of Boston University, priority 1998, dated 2000):
“And” between values parts separate entries of the source, which are not always exact repeats. Identical values can stand only once. “Also recorded” adds a separate entry of the source. Counter-ions that a name gives are not always drawn. Like-named read-outs stand apart in the source and are kept apart here.

Tests used:
NMDA receptor = test: Whole cell patch clamp, NMDA-induced current in cultured chick spinal cord neurons; format: cell-based; settings: for average inhibition of the current induced by 30 μM NMDA: 50 μM steroid
Procedure: Cultures of dissociated spinal cord neurons were prepared as previously described (Farb, D. H., et al., J. Cell Biol., 80:651-661 (1979)). Briefly, the dissociated cells from 7-day chick embryos were plated on collagen-coated 35-mm tissue culture dishes in Eagle's minimum essential medium supplemented with 2.4 mM glutamine, 10% (v/v) heat-inactivated horse serum, 5% (v/v) chick embryo extract and antibiotics. Cultures were maintained in a humidified atmosphere of 5% CO2, 95% air at 37°. Cytarabine (1 μM) was added to the culture medium after 36 hr. of the initial plating to inhibit the proliferation of non-neuronal cells. One day later, this medium was replaced with a similar medium supplemented with 20.5 mM glucose, 19 mM KCl, and 2.5% chick embryo extract. Fresh medium was added twice weekly. Cultured neurons were used in experiments within 2-4 weeks after plating.
Experiments were carried out in 35-mm tissue culture dishes on the stage of an inverted phase contrast microscope. Whole cell currents were recorded by the whole cell variant of the patch clamp technique (Hamill, O. P., et al., Pfagers Arch. 891:85-100 (1981)). Patch electrodes had tip openings of about […] and resistances of 3-8 M.OMEGA. using an intracellular solution comprised of the following (in mM): 140 CsCl, 11 EGTA, and 10 HEPES (pH adjusted to 7.2 with CsOH). In experiments in which a high concentration of glycine was used, the intracellular solution was replaced with a low chloride (10 mM) pipette solution. This solution contained the following (in mM): 140 potassium gluconate, 10 KCl, 8 sodium gluconate, 11 EGTA, and 10 HEPES (pH adjusted to 7.2 with KOH). To prevent a marked run-down of NMDA-induced current at high NMDA concentrations, 4 mM potassium ATP was included in the intracellular solution. The bath solution contained the following (in mM): 150 NaCl, 4 KCl, 1 CaCl2, and 10 HEPES (pH adjusted to 7.2 with NaOH). No glycine was added to the solutions containing NMDA, because no additional glycine was required to obtain a robust NMDA response, and there was no effect of a maximal concentration (10 μM) of glycine on 5β3αS inhibition of the NMDA response. All experiments were performed at room temperature (23-25° C.).
Recordings were made using an Axopatch 1B patch clamp apparatus (Axon Instruments, Burlingame, Calif.). Cells with series resistances greater than 10 M.OMEGA. were rejected. After partial compensation, series resistances were between 3.5 and 6 M.OMEGA.. The holding potential was maintained at -70 mV unless otherwise noted. Currents were filtered at 1 kHz using an eight-pole Bessel filter (-3 dB) and digitized ([…]) using an on-line data acquisition system (pClamp, Axon Instruments).
Drug solutions were applied to single neurons by pressure ejection (15 psi) from seven-barrel pipettes. Seven-barrel pressure pipettes were positioned approximately […] from the neuronal soma. Under these conditions, the drug solution in the pressure pipette rapidly and effectively replaces the solution surrounding the target neurons with less than 10% dilution (Choi, D. W., et al., Nature (Lond.) 269:342-344 (1977); Chan, C. Y., et al., Life Sci., 83:2061-2069 (1983); Chan, C. Y. and Farb, D. H., J. Neurosci., 5:2365-2373 (1985)). All drugs were obtained from Sigma, with the except of AMPA hydrobromide (Research Biochemicals) and steroids (Steraloids). Stock solutions of steroids were prepared in dimethyl sulfoxide, the final concentration of which was 0.5% (v/v). To obviate the possible effects of dimethyl sulfoxide on the relevant agonist-induced currents, all other drug solutions including NMDA, kainate, AMPA and external buffer (in the pressure pipette) also contained 0.5% dimethyl sulfoxide. […]

[1] = system: glutamate receptor-mediated spontaneous EPSCs in rat hippocampal neurons; test: Spontaneous excitatory postsynaptic currents (EPSCs), whole-cell recording in cultured hippocampal neurons; format: cell-based; settings: for effect on spontaneous EPSCs: cultures of rat hippocampal neurons; for EC50: voltage-clamped at -70 mV, read-out: EC50 of EPSC potentiation
Procedure: Primary cultures of hippocampal neurons were prepared from embryonic day 18 rats. Cultured neurons were used in experiments 2-3 weeks after plating.
Spontaneous excitatory postsynaptic currents were recorded by the whole-cell variant of the patch clamp technique. The pipet solution usually contained (in mM) KCl 10, EGTA 11, sodium gluconate 3, potassium gluconate 140 and HEPES 10, adjusted to pH 7.2 with KOH. The bath solution contained (in mM) NaCl 150, KCl 4, CaCl2 1, and HEPES 10, adjusted to pH 7.2 with NaOH. Because NMDA-induced currents are subject to voltage-dependent block by extracellular Mg^2+, no magnesium salts were added to the bath solution. All records were made with the cell membrane potential clamped at -70 mV, which is very close to the Cl- equilibrium potential. Therefore, IPSCs are not expected to be observed and spontaneous activity should consist of EPSCs. The complete blockage of spontaneous activity by the co-application of the NMDA receptor antagonist APV and the non-NMDA receptor antagonist DNQX argues that the observed spontaneous activity is glutamate receptor-mediated.
Drug solutions were applied to single neurons by pressure ejection (15 psi) from 7-barrel pipets (tip opening ~3-5 μm) positioned ~50 μm from the neuronal soma. In all experiments, neurons received a 40s application of either steroid or steroid plus antagonist(s), followed by 10-20s pulse of external buffer solution.

Structure (SMILES): CC(=O)[C@H]1CC[C@H]2[C@@H]3CC[C@@H]4C[C@H](OS(=O)(=O)O)CC[C@]4(C)[C@H]3CC[C@]12C [5β3αS, 3α-hydroxy-5β-pregnan-20-one sulfate]
- average inhibition of the current induced by 30 μM NMDA (NMDA receptor; in the absence of glycine): 49.1±3.4%
- average inhibition of the current induced by 30 μM NMDA (NMDA receptor; with added 10 μM glycine): 51.3±3.5%
- inhibition of the response to 30 μM NMDA (NMDA receptor; 100 μM steroid applied with NMDA, holding potential -70 mV, sulfate): 66% and 66.1±2.7%
- average inhibition of the NMDA-induced current (NMDA receptor; 100 μM steroid, holding potential +50 mV): 62.0±2.8%
- average inhibition of the NMDA-induced current (NMDA receptor; 100 μM steroid, holding potential -70 mV, voltage dependence test): 63.2±2.7%
- maximal inhibition of the 30 μM NMDA response (NMDA receptor; curve-fit analysis): 101.1%
- NMDA nH in the presence of steroid (NMDA receptor; in the presence of 50 μM 5β3αS): 1.46
- EC50 (NMDA receptor; read-out: EC50 for inhibition of the 30 μM NMDA response, concentration-response curve, curve-fit, 30 μM NMDA, sulfate): 62 µM and 62.1 µM
- direct response to steroid applied alone (NMDA receptor; steroid alone): did not produce any direct response
- effect on spontaneous EPSCs [1]: inhibits spontaneous EPSCs

Structure (SMILES): CC(=O)C1CCC2C3CC=C4CC(OS(=O)(=O)O)CCC4(C)C3CCC12C (stereo not drawn) [PS, pregnenolone sulfate]
- average NMDA response with intracellular steroid (NMDA receptor; 100 μM steroid in the electrode buffer): did not differ significantly from control
- potentiation of the NMDA response (NMDA receptor; 100 μM steroid in the presence of 10 μM arachidonic acid): 182±25%
- potentiation of the NMDA response (NMDA receptor; 100 μM steroid in the presence of 200 μM 5β3βS): still evident
- potentiation of the NMDA induced current (NMDA receptor; 100 μM steroid, after about 1 hour of 4 mM DTT): 165±26%
- potentiation of the response to 30 μM NMDA (NMDA receptor; 100 μM steroid, in the absence of spermine): 150±14%
- potentiation of the NMDA response (NMDA receptor; 100 μM steroid, in the presence of 100 μM spermine): 178±12%
- potentiation of the 30 μM NMDA response (NMDA receptor; after DTT plus NEM treatment): 103±23%
- potentiation of the NMDA response (NMDA receptor; after approximately 1 hour of exposure to 10 mM DTT): 161±12%
- potentiation of the NMDA response by extracellularly applied steroid (NMDA receptor; in the absence of intracellular PS): 158±24%
- potentiation of the NMDA response by extracellularly applied steroid (NMDA receptor; in the presence of intracellular PS (100 μM)): 152±23%
- potentiation of EPSCs with NMDA receptors blocked ([1]; 100 μM steroid, APV (40 μM)): reduced
- effect on spontaneous EPSCs [1]: potentiates spontaneous EPSCs; also recorded: potentiates spontaneous excitatory post-synaptic currents
- EC50 ([1]; listed as pregnenolone sulfate): 11.9 µM
- EC50 [1]: 5.6 µM
